# Assay results taken from ChEMBL document CHEMBL1144680, “Structure-guided design of aminopyrimidine amides as potent, selective inhibitors of lymphocyte specific kinase: synthesis, structure-activity relationships, and inhibition of in vivo T cell activation” (J Med Chem, 2008).
# Key:
# Lymphocyte = test: Inhibition of T cell activation in human peripheral blood lymphocytes by mixed lymphocyte reaction; assay type: functional, cell-based
# Angiopoietin-1 receptor = Angiopoietin-1 receptor (Homo sapiens, UniProt Q02763); test: Inhibition of Tie2 by HTRF assay
# [1] = molecular target: Tyrosine-protein kinase Lck (Homo sapiens, UniProt P06239)
# Description: Inhibition of Lck by HTRF assay
# [2] = molecular target: Mitogen-activated protein kinase 14 (Homo sapiens, UniProt Q16539); test: Inhibition of p38alpha by HTRF assay
# [3] = molecular target: T1, Tyrosine-protein kinase JAK3 (Homo sapiens, UniProt P52333); test: Inhibition of Jak3 by HTRF assay
# T1 sequence (P52333 whole entry): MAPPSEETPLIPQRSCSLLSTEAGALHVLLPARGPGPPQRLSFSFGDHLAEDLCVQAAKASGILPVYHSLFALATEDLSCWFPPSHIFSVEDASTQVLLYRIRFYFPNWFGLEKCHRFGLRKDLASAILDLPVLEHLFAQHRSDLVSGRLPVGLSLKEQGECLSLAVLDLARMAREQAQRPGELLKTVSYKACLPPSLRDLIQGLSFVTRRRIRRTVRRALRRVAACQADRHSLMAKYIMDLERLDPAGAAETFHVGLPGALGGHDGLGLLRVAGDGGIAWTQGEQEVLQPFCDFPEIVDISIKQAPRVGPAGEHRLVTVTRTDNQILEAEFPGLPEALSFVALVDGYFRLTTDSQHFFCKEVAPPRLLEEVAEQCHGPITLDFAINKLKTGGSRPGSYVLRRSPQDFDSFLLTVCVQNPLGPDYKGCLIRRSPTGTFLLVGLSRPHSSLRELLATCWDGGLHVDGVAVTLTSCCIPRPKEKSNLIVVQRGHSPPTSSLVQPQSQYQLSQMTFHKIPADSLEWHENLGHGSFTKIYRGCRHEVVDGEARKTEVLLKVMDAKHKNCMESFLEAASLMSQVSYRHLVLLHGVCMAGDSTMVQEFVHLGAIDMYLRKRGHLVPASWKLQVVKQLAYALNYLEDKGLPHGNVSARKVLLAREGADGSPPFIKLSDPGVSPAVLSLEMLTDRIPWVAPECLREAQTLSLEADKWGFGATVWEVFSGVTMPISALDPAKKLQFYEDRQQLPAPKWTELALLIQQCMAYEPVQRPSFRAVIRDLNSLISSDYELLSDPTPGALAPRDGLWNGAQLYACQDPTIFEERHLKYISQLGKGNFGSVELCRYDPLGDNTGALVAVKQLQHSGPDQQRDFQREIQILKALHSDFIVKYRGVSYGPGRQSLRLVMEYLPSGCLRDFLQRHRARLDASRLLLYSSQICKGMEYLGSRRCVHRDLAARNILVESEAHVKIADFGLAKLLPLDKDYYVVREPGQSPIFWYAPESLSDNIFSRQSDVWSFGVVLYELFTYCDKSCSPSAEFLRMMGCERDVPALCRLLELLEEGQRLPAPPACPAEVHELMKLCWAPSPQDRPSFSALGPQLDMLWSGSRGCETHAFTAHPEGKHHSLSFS
# [4] = molecular target: Vascular endothelial growth factor receptor 2 (Homo sapiens, UniProt P35968); test: Inhibition of KDR by HTRF assay
# [5] = Protein binding in rat plasma; assay type: ADME, cell-free; settings: read-out: PB (converted)
# [6] = Half life in Sprague-Dawley rat at 0.5 mg/kg, iv; assay type: ADME, organism-based; parameters: dose 0.5 mg/kg, route intravenous; settings: in vivo
# [7] = Oral bioavailability in Sprague-Dawley rat at 2 mg/kg; assay type: ADME, organism-based; settings: in vivo
# [8] = Tmax in Sprague-Dawley rat at 2 mg/kg; assay type: ADME, organism-based; parameters: dose 2 mg/kg; settings: in vivo
# [9] = Protein binding in mouse plasma; assay type: ADME, cell-free; settings: read-out: PB (converted)
# [10] = AUC (0 to infinity) in Sprague-Dawley rat at 2 mg/kg, po; assay type: ADME, organism-based; parameters: time infinity, dose 2 mg/kg, route oral; settings: plasma
# [11] = Volume of distribution at steady state in Sprague-Dawley rat at 0.5 mg/kg, iv; assay type: ADME, organism-based; parameters: dose 0.5 mg/kg, route intravenous; settings: in vivo, read-out: Vdss
# [12] = Clearance in Sprague-Dawley rat at 0.5 mg/kg, iv; assay type: ADME, organism-based; parameters: dose 0.5 mg/kg, route intravenous; settings: in vivo
# Blood [13] = test: Inhibition of anti-CD3-induced IL2 production in human whole blood by ELISA; assay type: functional, tissue-based
# [14] = Cmax in Sprague-Dawley rat at 2 mg/kg, po; assay type: ADME, organism-based; parameters: dose 2 mg/kg, route oral; settings: in vivo
# Blood [15] = test: Inhibition of LPS-induced TNFalpha production in human whole blood by ELISA; assay type: functional, tissue-based
# Tyrosine-protein kinase Lck, sequence (P06239 whole entry): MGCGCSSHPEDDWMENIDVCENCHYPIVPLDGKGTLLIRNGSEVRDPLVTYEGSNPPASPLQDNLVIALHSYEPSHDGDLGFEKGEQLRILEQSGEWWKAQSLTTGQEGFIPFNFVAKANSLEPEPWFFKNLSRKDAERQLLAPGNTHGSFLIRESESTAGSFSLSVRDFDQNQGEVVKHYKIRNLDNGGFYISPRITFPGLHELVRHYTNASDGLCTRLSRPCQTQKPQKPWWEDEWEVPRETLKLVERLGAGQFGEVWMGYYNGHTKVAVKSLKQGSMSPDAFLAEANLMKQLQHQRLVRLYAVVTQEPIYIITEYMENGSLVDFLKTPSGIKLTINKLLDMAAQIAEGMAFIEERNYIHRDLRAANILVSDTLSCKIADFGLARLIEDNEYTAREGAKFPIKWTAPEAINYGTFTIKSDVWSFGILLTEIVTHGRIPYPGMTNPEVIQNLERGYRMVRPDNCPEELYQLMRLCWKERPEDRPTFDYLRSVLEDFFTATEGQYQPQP
# Mitogen-activated protein kinase 14, sequence (Q16539 whole entry): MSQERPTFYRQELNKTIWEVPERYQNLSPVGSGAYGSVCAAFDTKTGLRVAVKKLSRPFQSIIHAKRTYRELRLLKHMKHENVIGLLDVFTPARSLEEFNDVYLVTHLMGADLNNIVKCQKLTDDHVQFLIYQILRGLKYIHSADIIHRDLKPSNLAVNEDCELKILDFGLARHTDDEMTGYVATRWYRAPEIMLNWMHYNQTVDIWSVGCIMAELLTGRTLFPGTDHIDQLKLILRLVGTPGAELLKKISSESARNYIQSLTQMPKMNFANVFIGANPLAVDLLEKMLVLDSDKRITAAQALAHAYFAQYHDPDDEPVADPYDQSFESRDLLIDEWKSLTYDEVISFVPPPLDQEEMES
# Angiopoietin-1 receptor, sequence (Q02763 whole entry): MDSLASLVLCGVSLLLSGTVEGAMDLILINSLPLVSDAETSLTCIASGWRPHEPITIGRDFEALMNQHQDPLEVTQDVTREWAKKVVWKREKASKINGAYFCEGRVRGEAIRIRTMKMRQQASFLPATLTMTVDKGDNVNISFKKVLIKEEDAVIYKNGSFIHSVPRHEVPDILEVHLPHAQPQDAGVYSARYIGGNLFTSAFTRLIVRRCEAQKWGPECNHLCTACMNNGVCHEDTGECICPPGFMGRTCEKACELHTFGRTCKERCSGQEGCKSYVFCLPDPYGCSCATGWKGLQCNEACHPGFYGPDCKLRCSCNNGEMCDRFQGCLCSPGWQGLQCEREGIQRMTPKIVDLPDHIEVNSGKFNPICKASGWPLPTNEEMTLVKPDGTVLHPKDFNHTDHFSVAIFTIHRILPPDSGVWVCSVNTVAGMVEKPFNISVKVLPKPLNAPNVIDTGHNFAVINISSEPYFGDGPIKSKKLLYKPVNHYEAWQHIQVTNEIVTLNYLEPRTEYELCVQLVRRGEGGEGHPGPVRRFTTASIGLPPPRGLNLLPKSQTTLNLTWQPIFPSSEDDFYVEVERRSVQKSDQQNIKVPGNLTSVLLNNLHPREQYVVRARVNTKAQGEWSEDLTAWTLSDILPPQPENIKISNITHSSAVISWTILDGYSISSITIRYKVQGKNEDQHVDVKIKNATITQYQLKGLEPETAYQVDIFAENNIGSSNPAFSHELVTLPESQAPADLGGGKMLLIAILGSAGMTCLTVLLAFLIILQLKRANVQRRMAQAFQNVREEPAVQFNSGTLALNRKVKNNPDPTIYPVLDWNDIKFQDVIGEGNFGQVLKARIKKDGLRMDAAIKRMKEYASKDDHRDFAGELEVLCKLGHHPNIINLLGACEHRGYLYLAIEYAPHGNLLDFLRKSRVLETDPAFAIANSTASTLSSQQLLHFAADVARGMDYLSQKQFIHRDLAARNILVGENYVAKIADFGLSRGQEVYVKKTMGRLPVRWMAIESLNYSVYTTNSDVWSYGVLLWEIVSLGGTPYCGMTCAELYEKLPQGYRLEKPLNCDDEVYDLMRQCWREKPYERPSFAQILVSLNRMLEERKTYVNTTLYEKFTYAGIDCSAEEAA
# Vascular endothelial growth factor receptor 2, sequence (P35968 whole entry): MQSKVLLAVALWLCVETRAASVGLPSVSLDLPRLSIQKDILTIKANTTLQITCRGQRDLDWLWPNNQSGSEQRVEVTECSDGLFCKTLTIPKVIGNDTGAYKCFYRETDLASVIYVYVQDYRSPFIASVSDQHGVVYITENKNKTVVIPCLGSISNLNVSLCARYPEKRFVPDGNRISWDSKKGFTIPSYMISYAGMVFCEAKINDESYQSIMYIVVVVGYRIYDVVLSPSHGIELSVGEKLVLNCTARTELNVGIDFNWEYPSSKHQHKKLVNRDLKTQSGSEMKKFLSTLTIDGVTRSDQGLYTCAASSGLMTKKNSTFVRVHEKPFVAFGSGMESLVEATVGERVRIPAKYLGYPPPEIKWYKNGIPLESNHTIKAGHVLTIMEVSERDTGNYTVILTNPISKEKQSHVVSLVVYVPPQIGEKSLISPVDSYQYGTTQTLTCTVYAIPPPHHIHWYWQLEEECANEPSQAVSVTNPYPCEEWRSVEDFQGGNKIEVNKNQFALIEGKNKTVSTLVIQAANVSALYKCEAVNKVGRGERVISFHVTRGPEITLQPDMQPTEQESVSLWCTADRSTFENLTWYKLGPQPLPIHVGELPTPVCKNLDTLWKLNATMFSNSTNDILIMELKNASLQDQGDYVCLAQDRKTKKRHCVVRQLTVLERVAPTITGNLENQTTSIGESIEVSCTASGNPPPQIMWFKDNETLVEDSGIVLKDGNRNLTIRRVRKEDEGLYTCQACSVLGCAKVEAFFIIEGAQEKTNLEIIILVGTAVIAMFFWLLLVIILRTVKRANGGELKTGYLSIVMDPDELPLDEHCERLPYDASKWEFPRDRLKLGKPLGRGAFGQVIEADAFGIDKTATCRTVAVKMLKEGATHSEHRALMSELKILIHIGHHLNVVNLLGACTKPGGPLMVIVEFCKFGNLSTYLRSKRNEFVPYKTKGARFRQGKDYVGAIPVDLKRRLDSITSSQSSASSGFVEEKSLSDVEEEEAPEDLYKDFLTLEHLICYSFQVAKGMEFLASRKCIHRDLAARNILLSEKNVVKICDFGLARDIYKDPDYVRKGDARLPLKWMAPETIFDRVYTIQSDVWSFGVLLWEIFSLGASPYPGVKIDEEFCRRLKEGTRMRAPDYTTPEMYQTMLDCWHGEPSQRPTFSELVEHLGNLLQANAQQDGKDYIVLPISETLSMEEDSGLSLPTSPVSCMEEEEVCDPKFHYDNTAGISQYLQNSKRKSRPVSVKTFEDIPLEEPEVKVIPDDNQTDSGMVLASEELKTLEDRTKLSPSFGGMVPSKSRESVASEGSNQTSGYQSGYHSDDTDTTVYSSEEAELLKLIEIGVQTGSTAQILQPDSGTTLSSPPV
SMILES,IC50 (Lymphocyte),IC50 (Angiopoietin-1 receptor),IC50 [1],IC50 [2],IC50 [3],IC50 [4],fraction unbound [5],half-life [6],bioavailability [7],Tmax [8],fraction unbound [9],AUC(0-inf) [10],Vd [11],clearance [12],IC50 (Blood [13]),Cmax [14],IC50 (Blood [15])
Cc1ccc(NC(=O)c2ccccc2)cc1C(=O)Nc1cnc(Nc2ccc(N3CCN(C)CC3)cc2)nc1,187 nM,> 25000 nM,5 nM,0.9 nM,> 25000 nM,947 nM,,,,,,,,,,,
Cc1ccc(NC(=O)c2ccc3c(c2)OC(F)(F)O3)cc1C(=O)Nc1cnc(Nc2ccc(N3CCN(C)CC3)cc2)nc1,58 nM,> 8300 nM,1.3 nM,10 nM,> 25000 nM,272 nM,0.011,2.5 h,4%,0.42 h,0.019,58 ng·h/mL,3.76 L/kg,22.8 mL/min/kg,13 nM,16 ng/mL,
Cc1ccc(NC(=O)Nc2cccc(C(F)(F)F)c2)cc1-c1ccc2nc(N)ncc2c1,205 nM,93 nM,7 nM,28 nM,3040 nM,169 nM,,,,,,,,,,,
Cc1ccc(NC(=O)c2cccc(C(F)(F)F)c2)cc1C(=O)Nc1cnc(NCCCN2CCOCC2)nc1,821 nM,> 25000 nM,24 nM,10 nM,> 25000 nM,> 8300 nM,,,,,,,,,,,
COc1ccccc1C(=O)Nc1ccc(C)c(C(=O)Nc2cnc(Nc3ccc(N4CCN(C)CC4)cc3)nc2)c1,399 nM,> 25000 nM,5 nM,8 nM,> 25000 nM,1120 nM,,,,,,,,,,,
Cc1ccc(NC(=O)c2ccc(C(C)(C)C)cc2)cc1C(=O)Nc1cnc(Nc2ccc(N3CCN(C)CC3)cc2)nc1,10 nM,> 8300 nM,1.5 nM,22 nM,> 25000 nM,32 nM,,2.9 h,,,,,15.8 L/kg,111 mL/min/kg,,,
CN1CCN(c2ccc(Nc3ncc(NC(=O)c4c(Cl)cccc4Cl)cn3)cc2)CC1,555 nM,> 25000 nM,10 nM,1070 nM,> 25000 nM,> 25000 nM,,,,,,,,,,,
Cc1ccc(NC(=O)Nc2cccc(C(F)(F)F)c2)cc1C(=O)Nc1cnc(N)nc1,158 nM,> 25000 nM,63 nM,,> 25000 nM,587 nM,,,,,,,,,,,
Cc1ccc(C(=O)Nc2cccc(C(F)(F)F)c2)cc1C(=O)Nc1cnc(N)nc1,,> 5000 nM,15 nM,87 nM,> 25000 nM,205 nM,,,,,,,,,,,

# Now from value to molecule:
IC50 (Lymphocyte),IC50 (Angiopoietin-1 receptor),IC50 [1],IC50 [2],IC50 [3],IC50 [4],fraction unbound [5],half-life [6],bioavailability [7],Tmax [8],fraction unbound [9],AUC(0-inf) [10],Vd [11],clearance [12],IC50 (Blood [13]),Cmax [14],IC50 (Blood [15]),SMILES
15 nM,123 nM,,10 nM,438 nM,5 nM,,,,,,,,,,,,Cc1ccc(C(=O)Nc2cccc(C(F)(F)F)c2)cc1C(=O)Nc1cnc(Nc2ccc(N3CCN(C)CC3)cc2)nc1
836 nM,> 25000 nM,6 nM,103 nM,> 25000 nM,2540 nM,,,,,,,,,,,,Cc1ccc(NC(=O)c2cccc(C(F)(F)F)c2)c(C)c1C(=O)Nc1cnc(Nc2ccc(N3CCN(C)CC3)cc2)nc1
60 nM,> 8300 nM,,12 nM,> 25000 nM,54 nM,0.014,1.8 h,7%,2.75 h,0.016,92 ng·h/mL,5.45 L/kg,48.7 mL/min/kg,2 nM,28 ng/mL,1370 nM,Cc1ccc(NC(=O)c2cccc(C(F)(F)F)c2C)cc1C(=O)Nc1cnc(Nc2ccc(N3CCN(C)CC3)cc2)nc1
87 nM,> 8300 nM,0.6 nM,2 nM,> 25000 nM,41 nM,,,,,,,,,,,,Cc1ccc(NC(=O)Nc2cccc(C(F)(F)F)c2)cc1C(=O)Nc1cnc(Nc2ccc(N3CCN(C)CC3)cc2)nc1
